Test results: patent US20190290683A1 (KEIO UNIVERSITY, priority 2016, published 2019)
Read-outs that look alike come from different tables or passages of the source.

How the values were obtained:
hemorrhagic shock model = conditions: for Exsanguinated/body weight (ml/100 g): exsanguinated volume per 100 g of body weight to maintain blood pressure at 30-35 mmHg
Procedure: In this Example, the effect of hydrogen gas on a hemorrhagic shock model was evaluated according to the test protocol shown in FIG. 1.
With SD rats (male, 250-300 g), an anesthetic drug was intraperitoneally administered to perform general anesthesia. Subsequently, a PE catheter was inserted into the left femoral artery to perform direct arterial pressure monitoring, and further, an exsanguination catheter from the right femoral artery and a left ventricle catheter for cardiac function measurement from the right common artery were each inserted.
The shock phase was initiated with the initiation of exsanguination. Exsanguination was slowly performed over 15 minutes, and for a total of 60 minutes since the initiation of exsanguination, the mean arterial pressure was maintained at 30-35 mmHg.
The resuscitation phase was initiated with the initiation of resuscitation by transfusion. Transfusion resuscitation by four times the exsanguinated volume of saline was performed over 15 minutes. Test gas inhalation (hydrogen group (21% oxygen+1.3% hydrogen) and control group (21% oxygen)) were performed for a total of 3 hours from the initiation of exsanguination to 2 hours after the initiation of resuscitation. In doing so, cardiac function (LVEDP, ±dP/dt) during the same period was also recorded.
The initiation of the observation phase was 2 hours after the initiation of the resuscitation phase, and observation was performed for 4 hours thereafter (6 hours from the initiation of the resuscitation phase). During this period, blood pressure (systolic, diastolic, mean), heart rate, and the like were measured with artificial respiration in room air.
Lactic acid value and blood gas at the initiation point of shock phase (baseline), the initiation point of resuscitation phase (0 minute), the initiation point of observation phase (120 minutes), and the end-of-test timepoint (360 minutes) were each measured and evaluated.

[1] = test system: rat hemorrhagic shock model; conditions: 6 hours after initiation of resuscitation; 1.3% hydrogen+26% oxygen+72.7% nitrogen inhaled 0 to 120 minutes (resuscitation phase only); control 30%
Procedure: In this test, improvement of the survival rate by hydrogen inhalation at the initiation point of resuscitation after shock in rat hemorrhagic shock model was evaluated.
The procedure in SD rats (250-300 g) to exsanguinate so that mean arterial pressure of 30-35 mmHg was maintained for 60 minutes, and then resuscitate with four times the exsanguinated volume of saline over 15 minutes to evaluate the survival rate at 6 hours after initiation of resuscitation was according to [Example 1].
In this test, test gas was given by inhalation as follows.

[2] = change over time after initiation of resuscitation, vs control group
[3] = change over time after initiation of resuscitation, vs control group, throughout the observation period
[4] = electrolyte at 120 minutes, vs control group

[HH] [hydrogen gas]
heart rate (hemorrhagic shock model; after initiation of resuscitation, vs control group): no great difference
pH (hemorrhagic shock model; blood gas at 120 minutes, vs control group, normal value about 7.4): statistically significantly higher
HCO3 (hemorrhagic shock model; blood gas at 120 minutes, vs control group, normal value about 24): statistically significantly higher
BE (base excess) (hemorrhagic shock model; blood gas at 120 minutes, vs control group, normal value about -2): statistically significantly improved
left ventricular end-diastolic pressure (LVEDP) (hemorrhagic shock model; [2]): no statistically significantly difference
negative dP/dt (hemorrhagic shock model; [2]): no statistically significantly difference
positive dP/dt (hemorrhagic shock model; [2]): no statistically significantly difference
diastolic blood pressure (hemorrhagic shock model; [3]): higher value
mean blood pressure (hemorrhagic shock model; [3]): higher value
systolic blood pressure (hemorrhagic shock model; [3]): higher value
K (hemorrhagic shock model; [4]): statistically significantly lower
Na (hemorrhagic shock model; [4]): no statistically significant difference
survival (individuals surviving) (hemorrhagic shock model; end-of-test timepoint at 6 hours after initiation of resuscitation, control 3/10): 8/10
Exsanguinated/body weight (ml/100 g) (hemorrhagic shock model; 21% oxygen+1.3% hydrogen, N = 15): 2.60±0.40 ml/100 g
Exsanguinated/body weight (ml/100 g) (hemorrhagic shock model; 21% oxygen+1.3% hydrogen, N = 15, listed as H2): 2.60 ± 0.40 ml/100 g
Exsanguinated (hemorrhagic shock model; exsanguinated volume to maintain mean arterial pressure at 30-35 mmHg, 21% oxygen+1.3% hydrogen, N = 15): 7.03 ± 1.15 mL
hemoglobin (Hb) (hemorrhagic shock model; extent of anemia at 120 minutes, vs control group): no statistically significant difference
lactic acid value (hemorrhagic shock model; initiation point of observation phase (120 minutes), vs control group, normal value 1.0 or less): statistically significantly lower
PaCO2 (Partial pressure of carbon dioxide) (hemorrhagic shock model; oxygenation indicator at 120 minutes, vs control group, normal around 40 mmHg): no statistical difference
PaO2 (Partial pressure of oxygen) (hemorrhagic shock model; oxygenation indicator at 120 minutes, vs control group, normal around 100 mmHg): higher values for the control group
survival rate [1]: 50%
